This experiment has as its target T1, HMG-CoA reductase (Homo sapiens, UniProt P04035).
T1 construct: endogenous in cells; host or cells: HepG2 (Korea Cell Line Bank)
T1 sequence (P04035 1-888): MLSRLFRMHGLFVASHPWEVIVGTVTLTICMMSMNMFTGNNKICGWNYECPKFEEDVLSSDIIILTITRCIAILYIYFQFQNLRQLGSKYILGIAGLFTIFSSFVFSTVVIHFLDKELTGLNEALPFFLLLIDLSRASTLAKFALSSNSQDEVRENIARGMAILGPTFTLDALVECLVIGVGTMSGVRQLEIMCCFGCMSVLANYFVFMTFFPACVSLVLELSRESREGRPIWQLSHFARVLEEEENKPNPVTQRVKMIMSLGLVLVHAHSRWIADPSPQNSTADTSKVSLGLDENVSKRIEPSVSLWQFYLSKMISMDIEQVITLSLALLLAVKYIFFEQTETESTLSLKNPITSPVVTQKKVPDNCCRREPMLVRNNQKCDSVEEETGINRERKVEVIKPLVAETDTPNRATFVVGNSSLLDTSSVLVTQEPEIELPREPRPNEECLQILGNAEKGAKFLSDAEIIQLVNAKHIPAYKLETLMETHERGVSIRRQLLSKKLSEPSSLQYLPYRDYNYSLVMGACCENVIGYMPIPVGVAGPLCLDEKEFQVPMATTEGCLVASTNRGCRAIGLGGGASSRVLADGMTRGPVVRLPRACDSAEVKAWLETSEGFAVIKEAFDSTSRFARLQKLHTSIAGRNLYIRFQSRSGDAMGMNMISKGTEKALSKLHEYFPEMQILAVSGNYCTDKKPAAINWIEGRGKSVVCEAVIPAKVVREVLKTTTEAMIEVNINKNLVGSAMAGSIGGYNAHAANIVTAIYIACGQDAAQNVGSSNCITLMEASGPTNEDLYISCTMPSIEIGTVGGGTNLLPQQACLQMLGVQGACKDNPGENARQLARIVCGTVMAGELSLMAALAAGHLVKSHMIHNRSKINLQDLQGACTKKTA
Briefly: HMG-CoA reductase (HMGCR) degradation in HepG2 cells by western blotting. Type of experiment: cell-based. The following applies: treated for 18 hours, ratio of HMG-CoA reductase to GAPDH, read-out: DC50. In short, it runs like this:
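HepG2 cells (passage P105–P110) treated 18 hours with compounds in 10-point three-fold dilutions from 3 μM. RIPA lysates (15 μg protein, BCA-quantified) run on SDS-PAGE and immunoblotted for HMGCR (1:500) with GAPDH (1:20000) as loading control, primary antibodies 16 hours at 4° C.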
As usually defined, the DC50 is the concentration giving 50% degradation. As to `C[C@H]1C=C2C=C[C@H](C)[C@H](CC[C@@H]3C[C@@H](O)CC(=O)O3)[C@H]2[C@@H](OC(=O)NCCOCCOCC#Cc2cccc3c2C(=O)N(C2CCC(=O)NC2=O)C3=O)C1` (stereo partly drawn) [Compound 115, (1S,3R,7S,8S,8aR)-8-(2-((2R,4R)-4-hydroxy-6-oxotetrahydro-2H-pyran-2-yl)ethyl)-3,7-dimethyl-1,2,3,7,8,8a-hexahydronaphthalen-1-yl (2-(2-((3-(2-(2,6-dioxopiperidin-3-yl)-1,3-dioxoisoindolin-4-yl)prop-2-yn-1-yl)oxy)ethoxy)ethyl)carbamate], the DC50 was under 0.05 µM.
As for `C[C@H]1C=C2C=C[C@H](C)[C@H](CC[C@@H]3C[C@@H](O)CC(=O)O3)[C@H]2[C@@H](OC(=O)NCCOCCCOCCNc2cccc3c2C(=O)N(C2CCC(=O)NC2=O)C3=O)C1` (stereo partly drawn) [Compound 91, (1S,3R,7S,8S,8aR)-8-(2-((2R,4R)-4-hydroxy-6-oxotetrahydro-2H-pyran-2-yl)ethyl)-3,7-dimethyl-1,2,3,7,8,8a-hexahydronaphthalen-1-yl (2-(3-(2-((2-(2,6-dioxopiperidin-3-yl)-1,3-dioxoisoindolin-4-yl)amino)ethoxy)propoxy)ethyl)carbamate], the figure is under 0.05 µM; as for `CN[C@@H](C)C(=O)N[C@H](C(=O)N1CCC[C@H]1c1nc(C(=O)c2cccc(OCCOCCOCCOCCNC(=O)O[C@H]3C[C@@H](C)C=C4C=C[C@H](C)[C@H](CC[C@@H]5C[C@@H](O[Si](C)(C)C(C)(C)C)CC(=O)O5)[C@H]43)c2)cs1)C1CCCCC1` [Compound 37, (1S,3R,7S,8S,8aR)-8-(2-((2R,4R)-4-((tert-butyldimethylsilyl)oxy)-6-oxotetrahydro-2H-pyran-2-yl)ethyl)-3,7-dimethyl-1,2,3,7,8,8a-hexahydronaphthalen-1-yl (2-(2-(2-(2-(3-(2-((S)-1-((S)-2-cyclohexyl-2-((S)-2-(methylamino)propanamido)acetyl)pyrrolidin-2-yl)thiazole-4-carbonyl)phenoxy)ethoxy)ethoxy)ethoxy)ethyl)carbamate], under 0.05 µM; as for `C[C@H]1C=C2C=C[C@H](C)[C@H](CC[C@@H]3C[C@@H](O)CC(=O)O3)[C@H]2[C@@H](OC(=O)NCCOCCOCCOCC(=O)Nc2cccc3c2C(=O)N(C2CCC(=O)NC2=O)C3=O)C1` (stereo partly drawn) [Compound 99, (1S,3R,7S,8S,8aR)-8-(2-((2R,4R)-4-hydroxy-6-oxotetrahydro-2H-pyran-2-yl)ethyl)-3,7-dimethyl-1,2,3,7,8,8a-hexahydronaphthalen-1-yl (2-(2-(2-(2-((2-(2,6-dioxopiperidin-3-yl)-1,3-dioxoisoindolin-4-yl)amino)-2-oxoethoxy)ethoxy)ethoxy)ethyl)carbamate], under 0.05 µM.
As for `C[C@H]1C=C2C=C[C@H](C)[C@H](CC[C@@H]3C[C@@H](O)CC(=O)O3)[C@H]2[C@@H](OC(=O)NCCOCCOCCNC(=O)COc2cccc3c2C(=O)N(C2CCC(=O)NC2=O)C3=O)C1` (stereo partly drawn) [Compound 139, (1S,3R,7S,8S,8aR)-8-(2-((2R,4R)-4-hydroxy-6-oxotetrahydro-2H-pyran-2-yl)ethyl)-3,7-dimethyl-1,2,3,7,8,8a-hexahydronaphthalen-1-yl (2-(2-(2-(2-((2-(2,6-dioxopiperidin-3-yl)-1,3-dioxoisoindolin-4-yl)oxy)acetamido)ethoxy)ethoxy)ethyl)carbamate], the DC50 lay in the range of 0.05 to 0.5 µM.
As for `Cc1ncsc1-c1ccc(CNC(=O)[C@@H]2C[C@@H](O)CN2C(=O)[C@@H](NC(=O)COCCOCCOCCOCCOCCNC(=O)O[C@H]2C[C@@H](C)C=C3C=C[C@H](C)[C@H](CC[C@@H]4C[C@@H](O)CC(=O)O4)[C@H]32)C(C)(C)C)cc1` [Compound 18, (1S,3R,7S,8S,8aR)-8-(2-((2R,4R)-4-hydroxy-6-oxotetrahydro-2H-pyran-2-yl)ethyl)-3,7-dimethyl-1,2,3,7,8,8a-hexahydronaphthalen-1-yl ((S)-19-((2S,4R)-4-hydroxy-2-((4-(4-methylthiazol-5-yl)benzyl)carbamoyl)pyrrolidine-1-carbonyl)-20,20-dimethyl-17-oxo-3,6,9,12,15-pentaoxa-18-azahenicosyl)carbamate], the figure is under 0.05 µM.
Take `C[C@H]1C=C2C=C[C@H](C)[C@H](CC[C@@H]3C[C@@H](O)CC(=O)O3)[C@H]2[C@@H](OC(=O)NCCOCC(=O)NCC(=O)Nc2cccc3c2C(=O)N(C2CCC(=O)NC2=O)C3=O)C1` (stereo partly drawn) [Compound 145, (1S,3R,7S,8S,8aR)-8-(2-((2R,4R)-4-hydroxy-6-oxotetrahydro-2H-pyran-2-yl)ethyl)-3,7-dimethyl-1,2,3,7,8,8a-hexahydronaphthalen-1-yl (2-(2-((2-((2-(2,6-dioxopiperidin-3-yl)-1,3-dioxoisoindolin-4-yl)amino)-2-oxoethyl)amino)-2-oxoethoxy)ethyl)carbamate]: the half-maximal degradation concentration (DC50) is under 0.05 µM.
Next, `CN[C@@H](C)C(=O)N[C@H](C(=O)N1CCC[C@@H]1c1nc(C(=O)c2cccc(OCCOCCOCCNC(=O)O[C@H]3C[C@@H](C)C=C4C=C[C@H](C)[C@H](CC[C@@H]5C[C@@H](O[Si](C)(C)C(C)(C)C)CC(=O)O5)[C@H]43)c2)cs1)C1CCCCC1` [Compound 35, (1S,3R,7S,8S,8aR)-8-(2-((2R,4R)-4-((tert-butyldimethylsilyl)oxy)-6-oxotetrahydro-2H-pyran-2-yl)ethyl)-3,7-dimethyl-1,2,3,7,8,8a-hexahydronaphthalen-1-yl (2-(2-(2-(3-(2-((R)-1-((S)-2-cyclohexyl-2-((S)-2-(methylamino)propanamido)acetyl)pyrrolidin-2-yl)thiazole-4-carbonyl)phenoxy)ethoxy)ethoxy)ethyl)carbamate]: over 0.5 µM.
Next, `CC(C)[Si](O[C@H]1CC(=O)O[C@H](CC[C@@H]2[C@@H]3C(=C[C@H](C)C[C@@H]3OC(=O)NCCOCCOCCNc3cccc4c3C(=O)N(C3CCC(=O)NC3=O)C4=O)C=C[C@@H]2C)C1)(C(C)C)C(C)C` (stereo partly drawn) [Compound 70, (1S,3R,7S,8S,8aR)-3,7-dimethyl-8-(2-((2R,4R)-6-oxo-4-((triisopropylsilyl)oxy)tetrahydro-2H-pyran-2-yl)ethyl)-1,2,3,7,8,8a-hexahydronaphthalen-1-yl (2-(2-(2-((2-(2,6-dioxopiperidin-3-yl)-1,3-dioxoisoindolin-4-yl)amino)ethoxy)ethoxy)ethyl)carbamate]: under 0.05 µM.
Consider `Cc1ncsc1-c1ccc(CNC(=O)[C@@H]2C[C@@H](O)CN2C(=O)[C@@H](NC(=O)COCCNC(=O)O[C@H]2C[C@@H](C)C=C3C=C[C@H](C)[C@H](CC[C@@H]4C[C@@H](O)CC(=O)O4)[C@H]32)C(C)(C)C)cc1` [Compound 14, (1S,3R,7S,8S,8aR)-8-(2-((2R,4R)-4-hydroxy-6-oxotetrahydro-2H-pyran-2-yl)ethyl)-3,7-dimethyl-1,2,3,7,8,8a-hexahydronaphthalen-1-yl (2-(2-(((S)-1-((2S,4R)-4-hydroxy-2-((4-(4-methylthiazol-5-yl)benzyl)carbamoyl)pyrrolidin-1-yl)-3,3-dimethyl-1-oxobutan-2-yl)amino)-2-oxoethoxy)ethyl)carbamate], for which the DC50 was 0.05 to 0.5 µM.
On to `C[C@H]1C=C2C=C[C@H](C)[C@H](CC[C@@H]3C[C@@H](O[Si](C)(C)C(C)(C)C)CC(=O)O3)[C@H]2[C@@H](OC(=O)NCCc2ccc(CC(=O)Nc3cccc4c3C(=O)N(C3CCC(=O)NC3=O)C4=O)cc2)C1` (stereo partly drawn) [Compound 146, (1S,3R,7S,8S,8aR)-8-(2-((2R,4R)-4-((tert-butyldimethylsilyl)oxy)-6-oxotetrahydro-2H-pyran-2-yl)ethyl)-3,7-dimethyl-1,2,3,7,8,8a-hexahydronaphthalen-1-yl (4-(2-((2-(2,6-dioxopiperidin-3-yl)-1,3-dioxoisoindolin-4-yl)amino)-2-oxoethyl)phenethyl)carbamate], for which the half-maximal degradation concentration (DC50) was under 0.05 µM.
As for `Cc1ncsc1-c1ccc(CNC(=O)[C@H]2C[C@H](O)CN2C(=O)[C@H](NC(=O)C2(F)CC2)C(C)(C)C)c(OCC(=O)N2CCC(CCCNC(=O)O[C@H]3C[C@@H](C)C=C4C=C[C@H](C)[C@H](CC[C@@H]5C[C@@H](O)CC(=O)O5)[C@H]43)CC2)c1` [Compound 168, (1S,3R,7S,8S,8aR)-8-(2-((2R,4R)-4-hydroxy-6-oxotetrahydro-2H-pyran-2-yl)ethyl)-3,7-dimethyl-1,2,3,7,8,8a-hexahydronaphthalen-1-yl (3-(1-(2-(2-(((2R,4S)-1-((R)-2-(1-fluorocyclopropane-1-carboxamido)-3,3-dimethylbutanoyl)-4-hydroxypyrrolidine-2-carboxamido)methyl)-5-(4-methylthiazol-5-yl)phenoxy)acetyl)piperidin-4-yl)propyl)carbamate], the figure is under 0.05 µM.

The values above are taken from US12479840B2, “HMG-CoA reductase degradation inducing compound” (Uppthera, priority 2020, dated 2025).
